Values quoted from earlier work as cited in patent publication US12303506B2, “Trabectedin composition” (EXTROVIS AG, priority 2022, dated 2025).

Conditions: background statement

In the case of `COc1cc2c(cc1O)CCN[C@]21CS[C@@H]2c3c(OC(C)=O)c(C)c4c(c3[C@H](COC1=O)N1[C@@H]2[C@H]2c3c(cc(C)c(OC)c3O)C[C@@H]([C@@H]1O)N2C)OCO4` [Trabectedin, (1′R,6R,6aR,7R,13S,14S,16R)-5(acetyloxy)-3′,4′,6,6a,7,13,14,16-octahydro-6′,8,14-trihydroxy-7′,9-dimethoxy-4,10,23 trimethylspiro[6,16-(epithiopropanoxymethano)-7,13-imino-12H-1,3dioxolo[7,8]isoquino[3,2b][3]benzazocine-20,1′(2′H)-isoquinolin]-19-one], the aqueous solubility is given as “limited aqueous solubility”.
